Literature values in patent publication US11744998B2, “Drug delivery devices with drug-permeable component and methods” (TARIS Biomedical LLC, priority 2015, dated 2023).
Counter-ions that a name gives are not always drawn.

Settings: water at 37° C.

| Structure (SMILES) | approximate solubility |
| --- | --- |
| Nc1ccn([C@@H]2O[C@H](CO)[C@@H](O)C2(F)F)c(=O)n1 [gemcitabine HCl] | ~80 mg/mL |
| Nc1ccn([C@@H]2O[C@H](CO)[C@@H](O)C2(F)F)c(=O)n1 [gemcitabine base] | ~15 mg/mL |
| Cc1ccc(O)c([C@H](CCN(C(C)C)C(C)C)c2ccccc2)c1 [tolterodine tartrate] | ~12 mg/mL |
| O=C(O[C@H]1C[C@H]2CC[C@@H](C1)[N+]21CCCC1)C(O)(c1ccccc1)c1ccccc1 [trospium chloride] | ~500 mg/mL |
